Source: patent US9255063B2, “Colchicine solid-state forms; methods of making; and methods of use thereof” (Takeda Pharmaceuticals U.S.A., Inc., priority 2008, dated 2016)

Experiments:
[1] = TG-FTIR, N2 atmosphere, heating rate 10 K/min, range 25° C. to 350° C.
[2] = 81% RH; nitrogen; 38 days
Method: Five techniques are used to find colchicine solid forms: 1) suspension equilibration, 2) precipitation 3) drying and water vapor adsorption, 4) evaporation, and 5) melt quench. Suspension equilibration generally is carried out by slurrying the colchicine in a solvent system, optionally including an antisolvent. Precipitation generally is carried out by adding an antisolvent to a solution of colchicine. Evaporation technique is generally carried out by allowing the solvent of a solution of colchicine to evaporate to induce crystallization of the colchicine. Water vapor adsorption technique generally involves exposing colchicine to a controlled humid environment so that the material takes up water. The drying experiments can be performed under inert atmospheres (e.g., nitrogen). Melt quench generally involves fast cooling a melt to form a solid.

Row | SMILES | Decomposition is observed above (temperature) [1] | Ethyl acetate content after water vapor adsorption [2] [% ethyl] | Water content after water vapor adsorption [2] [% water and]
1 | COc1cc2c(c(OC)c1OC)-c1ccc(OC)c(=O)cc1[C@@H](NC(C)=O)CC2 [Form E] | above 250 °C | – | –
2 | COc1cc2c(c(OC)c1OC)-c1ccc(OC)c(=O)cc1[C@@H](NC(C)=O)CC2 [Form A, (−)-N-[(7S,12aS)-1,2,3,10-tetramethoxy-9-oxo-5,6,7,9-tetrahydrobenzo[a]heptalen-7-yl]-acetamide] | above 275 °C | 2 | 4
3 | COc1cc2c(c(OC)c1OC)-c1ccc(OC)c(=O)cc1[C@@H](NC(C)=O)CC2 [Form F] | above 280 °C | – | –
